Broadly, the IC50 is the concentration that inhibits the measured activity by half. A high value points to lower potency.

The target of this assay is T1, CHK1 kinase (Homo sapiens, UniProt O14757).
T1 construct: glutathione S-transferase (GST); made in house; host or cells: Sf21 insect cells (S. frugiperda), baculovirus
T1 sequence (O14757 1-476): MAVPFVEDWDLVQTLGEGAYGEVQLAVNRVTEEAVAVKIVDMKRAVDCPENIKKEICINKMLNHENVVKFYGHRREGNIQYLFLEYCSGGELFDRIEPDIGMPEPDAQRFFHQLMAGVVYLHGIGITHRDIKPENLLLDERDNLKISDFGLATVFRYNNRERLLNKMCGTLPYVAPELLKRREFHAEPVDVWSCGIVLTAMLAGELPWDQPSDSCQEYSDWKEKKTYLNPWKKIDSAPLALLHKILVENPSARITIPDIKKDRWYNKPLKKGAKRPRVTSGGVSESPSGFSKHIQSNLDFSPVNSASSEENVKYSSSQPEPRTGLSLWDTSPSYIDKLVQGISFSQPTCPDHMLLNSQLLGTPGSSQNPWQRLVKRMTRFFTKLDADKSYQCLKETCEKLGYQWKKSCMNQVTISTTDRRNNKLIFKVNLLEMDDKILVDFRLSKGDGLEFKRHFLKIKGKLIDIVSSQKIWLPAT
Kind of assay: Flashplate method (CHK1), measurement of the CHK1 kinase activity. The settings on record: class symbols; 'Affinity to receptors'. Type of assay: biochemical. Here is the method:
CHK1 kinase is expressed for the purposes of protein production in insect cells (Sf21; S. frugiperda) and subsequent purification by affinity chromatography as fusion protein with glutathione S-transferase in a baculovirus expression vector. The cultivation, infection and digestion of the cells as well as the purification of the fusion protein by column chromatography are carried out in accordance with manufacturer-oriented generic working instructions.
The kinase activity is measured using various available measurement systems. In the scintillation proximity method (Sorg et al., J. of. Biomolecular Screening, 2002, 7, 11-19), the flashplate method or the filter binding test, the radioactive phosphorylation of a protein or peptide as substrate is measured using radioactively labelled ATP (γ^32P-ATP, (γ^33P-ATP). In the case of the presence of an inhibitory compound, a reduced radioactive signal, or none at all, can be detected. Furthermore, homogeneous time-resolved fluorescence resonance energy transfer (HTR-FRET) and fluorescence polarisation (FP) technologies are useful as assay methods (Sills et al., J. of Biomolecular Screening, 2002, 191-214).
The test plates used are 384-well streptavidin-coated Flashplates Plus® from Perkin Elmer (Cat.No. SMP410A001PK). The assay plate is equilibrated with 75 μl of assay buffer per well 30 min before commencement of the experiment. The buffer is sucked out before commencement of the experiment, and the components of the kinase reaction described below are pipetted onto the plate.
CHK1 kinase, a biotinylated substrate peptide (for example CHKtide: […]), is incubated with radioactively labelled ATP in the presence and absence of test substances at 30° Celsius and a total volume of 50 μl. The reaction is terminated using 25 μl of a 0.2 M EDTA solution. After incubation for 30 min at room temperature, the supernatants are filtered off with suction, and the wells are washed three times with 100 μl of 0.9% NaCl solution each time. The measurement of the bound radioactivity is carried out by means of a scintillation measuring instrument (Topcount NXT, Perkin-Elmer).
The full value used is the inhibitor-free kinase reaction. This should be approximately in the range 3000-4000 cpm. The pharmacological zero value used is staurosporin in a final concentration of 0.1 μM. The inhibitory values (IC50) are determined using the program RS1_MTS ( ).
Kinase reaction conditions per well:
0.15 μg of CHKtide ([…])
50 μl total volume (1-fold assay buffer reaction conditions)
Solutions used: • assay buffer:
0.1 mM Titriplex VI (EGTA
10 mM magnesium acetate 0.1% mercaptoethanol
pH=7.5 (to be set using hydrochloric acid) Bovine serum albumin (final concentration 0.1%) is not added until just before use. • stop solution:
0.2 M TitriplexIII (EDTA)
• γ^33P-ATP (Perkin-Elmer) • CHK1 kinase preparations: specific activity>50 U/mg • CHKtide solution: biotinylated peptide substrate (Biotrend) stored as stock solution (concentration 0.15 mg/ml).
Molecule `O=c1c(NCc2ccc3[nH]ccc3c2)c(Nc2ccc3[nH]cnc3c2)c1=O` [Compound A79, 3-(1H-benzimidazol-5-ylamino)-4-[(1H-indol-5-ylmethyl)amino]cyclobut-3-ene-1,2-dione] showed an IC50 of over 1 µM.

Molecule `O=c1[nH]c2ccc(CNc3c(Nc4ccc5[nH]cnc5c4)c(=O)c3=O)cc2[nH]1` [Compound A80, 3-(1H-benzimidazol-5-ylamino)-4-[(2-oxo-2,3-dihydro-1H-benzimidazol-5-ylmethyl)amino]-cyclobut-3-ene-1,2-dione] had an IC50 of over 1 µM.

In turn, `CCOC(=O)c1cc2cc(Nc3c(NCc4cccc(O)c4)c(=O)c3=O)ccc2[nH]1` [Compound A81, 3-(2-ethoxycarbonyl-1H-indol-5-ylamino)-4-(3-hydroxybenzylamino)cyclobut-3-ene-1,2-dione] came in with a half-maximal inhibitory concentration (IC50) of over 1 µM.

As for `O=c1c(Nc2ccc3[nH]cnc3c2)c(N2CCc3ccc(O)cc3C2)c1=O` [Compound A82, 3-(1H-benzimidazol-5-ylamino)-4-(7-hydroxy-3,4-dihydro-1H-isoquinolin-2-yl)cyclobut-3-ene-1,2-dione], the IC50 was over 1 µM.

On to `COc1cccc([C@H](C)Nc2c(Nc3ccc4[nH]cnc4c3)c(=O)c2=O)c1` [Compound A83, 3-(1H-benzimidazol-5-ylamino)-4-[(S)-1-(3-methoxyphenyl)ethylamino]cyclobut-3-ene-1,2-dione], for which the IC50 is over 1 µM.

Consider `O=c1c(NCc2ccc(F)c(O)c2)c(Nc2ccc3[nH]cnc3c2)c1=O` [Compound A84, 3-(1H-benzimidazol-5-ylamino)-4-(4-fluoro-3-hydroxybenzylamino)cyclobut-3-ene-1,2-dione], for which the IC50 was under 1 µM.

`COc1ccc(F)c(CNc2c(Nc3ccc4[nH]cnc4c3)c(=O)c2=O)c1` [Compound A85, 3-(1H-benzimidazol-5-ylamino)-4-(2-fluoro-5-methoxybenzylamino)cyclobut-3-ene-1,2-dione] yielded an IC50 of over 1 µM.

`O=c1c(NCc2cccc(O)c2Cl)c(Nc2ccc3[nH]cnc3c2)c1=O` [Compound A86, 3-(1H-benzimidazol-5-ylamino)-4-(2-chloro-3-hydroxybenzylamino)cyclobut-3-ene-1,2-dione] returned an IC50 of over 1 µM.

As to `O=c1c(NCc2ccc(O)c(O)c2)c(Nc2ccc3[nH]cnc3c2)c1=O` [Compound A87, 3-(1H-benzimidazol-5-ylamino)-4-(3,4-di-hydroxybenzylamino)cyclobut-3-ene-1,2-dione], the IC50 was under 1 µM.

With `O=c1c(NCc2ccc3[nH]cnc3c2)c(Nc2ccc3[nH]cnc3c2)c1=O` [Compound A88, 3-(1H-benzimidazol-5-ylamino)-4-[(1H-benzimidazol-5-ylmethyl)amino]cyclobut-3-ene-1,2-dione], the IC50 was over 1 µM.

`Cc1nc2cc(Nc3c(NCc4cccc(O)c4)c(=O)c3=O)ccc2[nH]1` [Compound A89, 3-(3-hydroxybenzylamino)-4-(2-methyl-1H-benzimidazol-5-ylamino)cyclobut-3-ene-1,2-dione] showed a half-maximal inhibitory concentration (IC50) of over 1 µM.

Turning to `O=c1c(NCc2ccc3[nH]c(C(F)(F)F)nc3c2)c(Nc2ccc3[nH]cnc3c2)c1=O` [Compound A90, 3-(1H-benzimidazol-5-ylamino)-4-[(2-trifluoromethyl-1H-benzimidazol-5-ylmethyl)-amino]cyclobut-3-ene-1,2-dione], the IC50 was over 1 µM.

`COc1ccc(CNc2c(Nc3ccc4[nH]cnc4c3)c(=O)c2=O)cc1O` [Compound A91, 3-(1H-benzimidazol-5-ylamino)-4-(3-hydroxy-4-methoxybenzylamino)cyclobut-3-ene-1,2-dione] registered an IC50 of over 1 µM.

Take `Cc1ccc(CNc2c(Nc3ccc4[nH]cnc4c3)c(=O)c2=O)cc1O` [Compound A92, 3-(1H-benzimidazol-5-ylamino)-4-(3-hydroxy-4-methylbenzylamino)cyclobut-3-ene-1,2-dione]: the half-inhibitory concentration (IC50) was over 1 µM.

Consider `CCOc1ccc(O)cc1CNc1c(Nc2ccc3[nH]cnc3c2)c(=O)c1=O` [Compound A93, 3-(1H-benzimidazol-5-ylamino)-4-(2-ethoxy-5-hydroxybenzylamino)cyclobut-3-ene-1,2-dione], for which the IC50 is over 1 µM.

`O=c1c(NCc2cc(O)cc(O)c2)c(Nc2ccc3[nH]cnc3c2)c1=O` [Compound A94, 3-(1H-benzimidazol-5-ylamino)-4-(3,5-di-hydroxybenzylamino)cyclobut-3-ene-1,2-dione]: the IC50 is under 1 µM.

Consider `NC(=O)c1cccc(CNc2c(Nc3ccc4[nH]cnc4c3)c(=O)c2=O)c1` [Compound A95, 3-(1H-benzimidazol-5-ylamino)-4-(3-amino-carbonylbenzylamino)cyclobut-3-ene-1,2-dione], for which the IC50 is over 1 µM.

On to `CN(C)Cc1c[nH]c2cc(CNc3c(Nc4ccc5[nH]cnc5c4)c(=O)c3=O)ccc12` [Compound A96, 3-(1H-benzimidazol-5-ylamino)-4-[(3-dimethylaminomethyl-1H-indol-6-ylmethyl)-amino]cyclobut-3-ene-1,2-dione], for which the IC50 was over 1 µM.

Consider `Cc1c(O)cccc1CNc1c(Nc2ccc3[nH]cnc3c2)c(=O)c1=O` [Compound A97, 3-(1H-benzimidazol-5-ylamino)-4-(3-hydroxy-2-methylbenzylamino)cyclobut-3-ene-1,2-dione], for which the IC50 is over 1 µM.

The molecule `Cc1nc2cc(Nc3c(NCc4cccc(O)c4)c(=O)c3=O)ccc2s1` [Compound A98, 3-(3-hydroxybenzylamino)-4-(2-methylbenzo-thiazol-5-ylamino)cyclobut-3-ene-1,2-dione] registered an IC50 of over 1 µM.

Molecule `O=C(O)CC(Nc1c(Nc2ccc3[nH]cnc3c2)c(=O)c1=O)c1cccc(O)c1` (stereo not drawn) [Compound A99, 3-[2-(1H-benzimidazol-5-ylamino)-3,4-dioxo-cyclobut-1-enylamino]-3-(3-hydroxyphenyl)-propionic acid] returned an IC50 of over 1 µM.

With `CCOC(=O)CC(Nc1c(Nc2ccc3[nH]cnc3c2)c(=O)c1=O)c1cccc(O)c1` (stereo not drawn) [Compound A100, ethyl 3-[2-(1H-benzimidazol-5-ylamino)-3,4-dioxocyclobut-1-enylamino]-3-(3-hydroxy-phenyl)propionate], the IC50 was over 1 µM.

The molecule `COC(=O)CC(Nc1c(Nc2ccc3[nH]cnc3c2)c(=O)c1=O)c1cccc(O)c1` (stereo not drawn) [Compound A101, methyl 3-[2-(1H-benzimidazol-5-ylamino)-3,4-dioxocyclobut-1-enylamino]-3-(3-hydroxy-phenyl)propionate] had an IC50 of under 1 µM.

`O=c1c(NCc2ccc3[nH]cc(-c4ccncc4)c3c2)c(Nc2ccc3[nH]cnc3c2)c1=O` [Compound A102, 3-(1H-benzimidazol-5-ylamino)-4-[(3-pyridin-4-yl-1H-indol-5-ylmethyl)amino]cyclobut-3-ene-1,2-dione] came in with a 50% inhibitory concentration (IC50) of over 1 µM.

For `O=c1c(NCc2cccc(O)c2F)c(Nc2ccc3[nH]cnc3c2)c1=O` [Compound A103, 3-(1H-benzimidazol-5-ylamino)-4-(2-fluoro-3-hydroxybenzylamino)cyclobut-3-ene-1,2-dione], the IC50 was over 1 µM.

`CCOc1cccc(CNc2c(Nc3ccc4[nH]cnc4c3)c(=O)c2=O)c1` [Compound A104, 3-(1H-benzimidazol-5-ylamino)-4-(3-ethoxy-benzylamino)cyclobut-3-ene-1,2-dione]: the concentration for half-maximal inhibition (IC50) is over 1 µM.

For `O=C(CC(Nc1c(Nc2ccc3[nH]cnc3c2)c(=O)c1=O)c1cccc(O)c1)N1CCOCC1` (stereo not drawn) [Compound A105, 3-(1H-benzimidazol-5-ylamino)-4-[1-(3-hydroxyphenyl)-3-morpholin-4-yl-3-oxo-propylamino]cyclobut-3-ene-1,2-dione], the IC50 is over 1 µM.

(Values after patent publication US20080234266A1, “Squaric Acid Derivatives II” (priority 2005, published 2008).)
